Here are results for one compound from PMC7748285, “A small molecule that mitigates bacterial infection disrupts Gram-negative cell membranes and is inhibited by cholesterol and neutral lipids” (PLoS Pathogens, 2020).

In this experiment the target is T1, AcrB (Escherichia coli, UniProt P31224).
T1 construct: 4·His tag at the C-terminus
Description: isothermal titration calorimetry (ITC) with purified AcrB, […]°C. It is filed as binding.

T1 sequence (P31224 whole entry): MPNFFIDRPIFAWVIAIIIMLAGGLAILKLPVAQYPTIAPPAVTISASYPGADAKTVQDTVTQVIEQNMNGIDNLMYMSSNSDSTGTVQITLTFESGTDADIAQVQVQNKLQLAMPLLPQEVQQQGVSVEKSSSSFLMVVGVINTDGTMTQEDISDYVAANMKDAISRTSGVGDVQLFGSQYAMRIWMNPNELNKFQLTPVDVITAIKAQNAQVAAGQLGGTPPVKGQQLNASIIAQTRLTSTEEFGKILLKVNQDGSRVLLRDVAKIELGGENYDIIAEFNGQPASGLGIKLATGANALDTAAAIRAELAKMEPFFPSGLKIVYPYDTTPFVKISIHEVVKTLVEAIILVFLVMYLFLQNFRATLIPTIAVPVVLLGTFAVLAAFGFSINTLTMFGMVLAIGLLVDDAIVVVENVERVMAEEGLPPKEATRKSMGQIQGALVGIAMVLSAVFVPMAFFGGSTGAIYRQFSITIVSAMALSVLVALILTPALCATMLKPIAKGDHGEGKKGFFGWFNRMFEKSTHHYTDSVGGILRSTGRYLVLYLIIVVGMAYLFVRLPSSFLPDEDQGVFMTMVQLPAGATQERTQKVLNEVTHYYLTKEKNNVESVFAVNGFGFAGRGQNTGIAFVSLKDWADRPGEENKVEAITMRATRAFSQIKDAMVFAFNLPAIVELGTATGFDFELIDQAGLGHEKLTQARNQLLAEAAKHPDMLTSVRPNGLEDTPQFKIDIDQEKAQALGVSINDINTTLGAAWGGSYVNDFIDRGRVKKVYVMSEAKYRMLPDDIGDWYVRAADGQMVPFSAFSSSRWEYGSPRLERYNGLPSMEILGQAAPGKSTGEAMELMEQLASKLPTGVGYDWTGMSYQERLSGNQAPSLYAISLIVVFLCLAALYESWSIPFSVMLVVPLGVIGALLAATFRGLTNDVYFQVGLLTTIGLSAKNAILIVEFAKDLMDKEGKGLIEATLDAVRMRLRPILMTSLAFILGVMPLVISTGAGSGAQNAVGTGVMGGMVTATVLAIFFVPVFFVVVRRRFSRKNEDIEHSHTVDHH

As to `OC(COc1ccc(C23CC4CC(CC(C4)C2)C3)cc1)CN1CCCCC1` (stereo not shown) [JD1], the Kd (in general, the free concentration of one partner at which half of the binding sites on the other are occupied at equilibrium, for simple one-to-one binding) was 520 nM.
